# Legend:
# [1] = tested on: cGVHD model mice (B10.D2 to BALB/c bone marrow transplantation); experiment: Survival and change in weight of PBA-treated allogeneic bone marrow transplantation recipient mice; assay type: in vivo, mouse; conditions: PBA 10 mg/kg i.p. once daily Day 10 to Day 27 after allogeneic bone marrow transplantation
# Experimental: Bone marrow transplantation was performed on model mice of cGVHD (Zhang Y, McCormick L L, Desai S R, Wu C, Gilliam A C, Murine Sclerodermatous Graft-Versus-Host Disease, a Model for Human Scleroderma: Cutaneous Cytokines, Chemokines, and Immune Cell Activation. The Journal of Immunology, 2002; 168: 3088-3098). When a donor was a B10.D2 mouse and a recipient was a BALB/c mouse, bone marrow transplantation was allogeneic, producing a model mouse of cGVHD. […] Recipients were irradiated at 700 cGy before bone marrow transplantation to perform lethal irradiation with a Gammacel 137 Cs source (Hitachi Medical Corp.). The recipient mice were each administered via tail vein with a suspension containing 1×10^6 donor bone marrow cells and 2×10^6 donor spleen cells.
# Bone marrow transplantation was performed as described in the above section “Bone marrow transplantation,” and the resulting allogeneic bone marrow transplantation recipient mice were divided into two groups. One group was treated with intraperitoneal injection of PBA (10 mg/kg) (Aldrich) while the other was treated with intraperitoneal injection of a solvent vehicle⋅phosphate buffered saline (PBS) (pH 7.4). […]
# Statistical significance was determined by the Mann-Whitney U test (which tests difference between two groups that have no correspondence). […]
# [2] = tested on: CHOP-expressing macrophages in lacrimal gland; experiment: Immunofluorescence of CD68/CHOP in lacrimal gland; assay type: in vivo; conditions: lacrimal gland from PBA-treated vs vehicle-treated mouse, FIG. 7A
# Experimental: Bone marrow transplantation was performed as described in the above section “Bone marrow transplantation,” and the resulting allogeneic bone marrow transplantation recipient mice were divided into two groups. One group was treated with intraperitoneal injection of PBA (10 mg/kg) (Aldrich) while the other was treated with intraperitoneal injection of a solvent vehicle⋅phosphate buffered saline (PBS) (pH 7.4). The allogeneic bone marrow transplantation recipients received once-daily administration of PBA or the solvent vehicle from Day 10 to Day 27 after bone marrow transplantation. They were sacrificed on Day 28 after bone marrow transplantation. […]
# Fluorescence images were captured under an LSM confocal microscope (Carl Zeiss). For counting CD45^+ cells, 5 randomly selected regions per section were photographed at a magnification of ×200, and the number of CD45^+ cells in each image was then determined. […]
structure (smiles),measurement,setting,value
"O=C(O)CCCc1ccccc1 [PBA, 4-phenyl-n-butyric acid]",% survival,"[1]; vs vehicle (PBS), FIG. 2A, n=14, P<0.05",higher survival percentage
same,change in weight,"[1]; vs vehicle, FIG. 2B, n=10, P<0.001",the vehicle-treated mouse group showed larger weight loss as compared with the PBA-treated mouse group
same,CHOP-expressing macrophages migrated into lacrimal gland,[2],not observed

# — patent US20190192458A1, “THERAPEUTIC/PROPHYLACTIC AGENT FOR GRAFT-VERSUS-HOST DISEASE, FIBROCYTE INVASION INHIBITOR, AND INHIBITOR AGAINST TEAR REDUCTION AND REDUCTION IN GOBLET CELLS” (KEIO UNIVERSITY, priority 2016, published 2019)
